Experimental data reported in patent US6780872B2, “Tricyclic dihydropyrazolone and tricyclic dihydroisoxazolone potassium channel openers” (Abbott Laboratories, priority 2000, dated 2004).

Test system: guinea-pig urinary bladder (GPB) cells
Assay: Membrane hyperpolarization (MHP) assay, DiBAC(4)3 dye, FLIPR
Assay type: cell-based
Conditions: Cavia porcellus; for Emax: maximal steady-state hyperpolarization in GPB cells, normalized to response with 10 μM P1075 (=100%); for EC50: membrane hyperpolarization in GPB cells, concentration eliciting 50% of the maximal response of the test sample
Method: Compounds were evaluated for potassium channel opening activity using primary cultured guinea-pig urinary bladder (GPB) cells.
For the preparation of urinary bladder smooth muscle cells, urinary bladders were removed from male guinea-pigs (Hartley, Charles River, Wilmington, Mass.) weighing 300-400 g and placed in ice-cold Ca^2+-free Krebs solution (Composition, mM: KCl, 2.7; KH2PO4, 1.5; NaCl, 75; Na2HPO4, 9.6; Na2HPO4.7H2O, 8; MgSO4, 2; glucose, 5; HEPES, 10; pH 7.4). Cells were isolated by enzymatic dissociation as previously described with minor modifications in (Klockner, U. and Isenberg, G., Pflugers Arch. 1985, 405, 329-339), hereby incorporated by reference. The bladder was cut into small sections and incubated in 5 mL of the Kreb's solution containing 1 mg/mL collagenase (Sigma, St. Louis, Mo.) and 0.2 mg/mL pronase (Calbiochem, La Jolla, Calif.) with continuous stirring in a cell incubator for 30 minutes. The mixture was then centrifuged at 1300×g for 5 minutes, and the pellet resuspended in Dulbecco's PBS (GIBCO, Gaithersburg, Md.) and recentrifuged to remove residual enzyme. The cell pellet was resuspended in 5 mL growth media (composition: Dulbecco's modified Eagle's medium supplemented with 10% fetal bovine serum, 100 units/mL penicillin, 100 units/mL streptomycin and […] amphotericin B) and further dissociated by pipetting the suspension through a flame-polished Pasteur pipette and passing it through a polypropylene mesh membrane (Spectrum, Houston, Tex.). The cell density was adjusted to 100,000 cells/mL by resuspension in growth media. Cells were plated in clear-bottomed black 96-well plates (Packard) for membrane potential studies at a density of 20,000 cells/well and maintained in a cell incubator with 90% air: 10% CO2 until confluent. Cells were confirmed to be of smooth muscle type by cytoskeletal staining using a monoclonal mouse anti human-α-smooth muscle actin (Biomeda, Foster City, Calif.).
Functional activity at potassium channels was measured by evaluating changes in membrane potential using the bis-oxonol dye DiBAC(4)3 (Molecular Probes) in a 96-well cell-based kinetic assay system, Fluorescent Imaging Plate Reader (FLIPR) (K. S. Schroeder et al., J. Biomed. Screen., v. 1 pp. 7581 (1996)), hereby incorporated by reference. DiBAC(4) is an anionic potentiometric probe which partitions between cells and extracellular solution in a membrane potential-dependent manner. With increasing membrane potential (for example, K^+ depolarization), the probe further partitions into the cell; this is measured as an increase in fluorescence due to dye interaction with intracellular lipids and proteins. Conversely, decreasing membrane potential (hyperpolarization by potassium channel openers) evokes a decrease in fluorescence.
Confluent guinea-pig urinary bladder cells cultured in black clear-bottomed 96-well plates were rinsed twice with […] assay buffer (composition, mM: HEPES, 20; NaCl, 120; KCl, 2; CaCl2, 2; MgCl2, 1; glucose, 5; pH 7.4 at 25° C.) containing 5 μM DiBAC(4) and incubated with […] of the buffer in a cell incubator for 30 minutes at 37° C. to ensure dye distribution across the membrane. After recording the baseline fluorescence for 5 minutes, the reference or test compounds, prepared at 10 times the concentration in the assay buffer, were added directly to the wells. Changes in fluorescence were monitored for an additional 25 minutes. Hyperpolarization responses were corrected for any background noise and were normalized to the response observed with 10 μM of the reference compound P1075, N″-cyano-N-(tert-pentyl)-N′-(3-pyridinyl)guanidine, which was assigned as 100%. P1075 is a potent opener of smooth muscle KATP channels (Quast et al., Mol. Pharmacol., v. 43 pp. 474-481 (1993)) and was prepared using the procedures described in (Manley, J. Med. Chem. (1992) 35, 2327-2340), hereby incorporated by reference. […]

EC50	Structure (SMILES)	Emax
0.55 µM	Cn1[nH]c(=O)c2c1NC1=C(C(=O)CC1)C2c1ccc(F)c(Br)c1 (stereo not drawn) [Example 1, 4-(3-bromo-4-fluorophenyl)-1-methyl-1,2,4,6,7,8-hexahydrocyclopenta[b]pyrazolo[4,3-e]pyridine-3,5-dione]	91%
2.77 µM	O=C1CCC2=C1C(c1ccc(F)c(Br)c1)c1c([nH][nH]c1=O)N2 (stereo not drawn) [Example 2, 4-(3-bromo-4-fluorophenyl)-1,2,4,6,7,8-hexahydrocyclopenta[b]pyrazolo[4,3-e]pyridine-3,5-dione]	90%
1.72 µM	O=C1CCCC2=C1C(c1ccc(F)c(Br)c1)c1c([nH][nH]c1=O)N2 (stereo not drawn) [Example 3, 4-(3-bromo-4-fluorophenyl)-4,7,8,9-tetrahydro-1H-pyrazolo[3,4-b]quinoline-3,5(2H,6H)-dione]	82%
0.27 µM	CCn1[nH]c(=O)c2c1NC1=C(C(=O)CC1)C2c1ccc(F)c(Br)c1 (stereo not drawn) [Example 4, 4-(3-bromo-4-fluorophenyl)-1-ethyl-1,2,4,6,7,8-hexahydrocyclopenta[b]pyrazolo[4,3-e]pyridine-3,5-dione]	103%
> 10 µM	CC(C)(C)n1[nH]c(=O)c2c1NC1=C(C(=O)CC1)C2c1ccc(F)c(Br)c1 (stereo not drawn) [Example 5, 4-(3-bromo-4-fluorophenyl)-1-tert-butyl-1,2,4,6,7,8-hexahydrocyclopenta[b]pyrazolo[4,3-e]pyridine-3,5-dione]	
> 10 µM	O=C1CCC2=C1C(c1ccc(F)c(Br)c1)c1c(n(-c3ccccn3)[nH]c1=O)N2 (stereo not drawn) [Example 6, 4-(3-bromo-4-fluorophenyl)-1-(2-pyridinyl)-1,2,4,6,7,8-hexahydrocyclopenta[b]pyrazolo[4,3-e]pyridine-3,5-dione]	
> 10 µM	Cn1[nH]c(=O)c2c1NC1=C(C(=O)CC1)C2c1ccc(OC(F)(F)F)cc1 (stereo not drawn) [Example 7, 1-methyl-4-[4-(trifluoromethoxy)phenyl]-1,2,4,6,7,8-hexahydrocyclopenta[b]pyrazolo[4,3-e]pyridine-3,5-dione]	
0.48 µM	Cc1ccc(C2C3=C(CCC3=O)Nc3c2c(=O)[nH]n3C)cc1Br (stereo not drawn) [Example 8, 4-(3-bromo-4-methylphenyl)-1-methyl-1,2,4,6,7,8-hexahydrocyclopenta[b]pyrazolo[4,3-e]pyridine-3,5-dione]	83%
0.68 µM	Cn1[nH]c(=O)c2c1NC1=C(C(=O)CC1)C2c1ccc(F)c(C(F)(F)F)c1 (stereo not drawn) [Example 9, 4-[4-fluoro-3-(trifluoromethyl)phenyl]-1-methyl-1,2,4,6,7,8-hexahydrocyclopenta[b]pyrazolo[4,3-e]pyridine-3,5-dione]	89%
2.35 µM	Cn1[nH]c(=O)c2c1NC1=C(C(=O)CC1)C2c1ccc(Cl)c([N+](=O)[O-])c1 (stereo not drawn) [Example 10, 4-(4-chloro-3-nitrophenyl)-1-methyl-1,2,4,6,7,8-hexahydrocyclopenta[b]pyrazolo[4,3-e]pyridine-3,5-dione]	90%
0.53 µM	Cc1ccc(C2C3=C(CCC3=O)Nc3c2c(=O)[nH]n3C)cc1I (stereo not drawn) [Example 11, 4-(3-iodo-4-methylphenyl)-1-methyl-1,2,4,6,7,8-hexahydrocyclopenta[b]pyrazolo[4,3-e]pyridine-3,5-dione]	109%
0.32 µM	Cn1[nH]c(=O)c2c1NC1=C(C(=O)CC1)C2c1ccc(F)c(I)c1 (stereo not drawn) [Example 12, 4-(4-fluoro-3-iodophenyl)-1-methyl-1,2,4,6,7,8-hexahydrocyclopenta[b]pyrazolo[4,3-e]pyridine-3,5-dione]	101%
0.67 µM	Cn1[nH]c(=O)c2c1NC1=C(C(=O)CC1)C2c1ccc(Cl)c(Cl)c1 (stereo not drawn) [Example 13, 4-(3,4-dichlorophenyl)-1-methyl-1,2,4,6,7,8-hexahydrocyclopenta[b]pyrazolo[4,3-e]pyridine-3,5-dione]	101%
> 10 µM	Cn1[nH]c(=O)c2c1NC1=C(C(=O)CC1)C2c1ccc(F)c(-c2ccco2)c1 (stereo not drawn) [Example 14, 4-[4-fluoro-3-(2-furyl)phenyl]-1-methyl-1,2,4,6,7,8-hexahydrocyclopenta[b]pyrazolo[4,3-e]pyridine-3,5-dione]	
7.7 µM	Cn1[nH]c(=O)c2c1NC1=C(C(=O)CC1)C2c1csc([N+](=O)[O-])c1 (stereo not drawn) [Example 15, 1-methyl-4-(5-nitro-3-thienyl)-1,2,4,6,7,8-hexahydrocyclopenta[b]pyrazolo[4,3-e]pyridine-3,5-dione]	58%
> 10 µM	Cn1[nH]c(=O)c2c1NC1=C(C(=O)CC1)C2c1ccc2nonc2c1 (stereo not drawn) [Example 16, 4-(2,1,3-benzoxadiazol-5-yl)-1-methyl-1,2,4,6,7,8-hexahydrocyclopenta[b]pyrazolo[4,3-e]pyridine-3,5-dione]	
> 10 µM	Cn1[nH]c(=O)c2c1NC1=C(C(=O)CC1)C2c1ccc2nsnc2c1 (stereo not drawn) [Example 17, 4-(2,1,3-benzothiadiazol-5-yl)-1-methyl-1,2,4,6,7,8-hexahydrocyclopenta[b]pyrazolo[4,3-e]pyridine-3,5-dione]	
1.97 µM	Cn1[nH]c(=O)c2c1NC1=C(C(=O)CCC1)C2c1ccc(F)c(Br)c1 (stereo not drawn) [Example 18, 4-(3-bromo-4-fluorophenyl)-1-methyl-4,7,8,9-tetrahydro-1H-pyrazolo[3,4-b]quinoline-3,5(2H,6H)-dione]	80%
> 10 µM	Cn1[nH]c2c(c1=O)C(c1ccc(F)c(Br)c1)C1=C(CCC1=O)N2 (stereo not drawn) [Example 19, 4-(3-bromo-4-fluorophenyl)-2-methyl-1,2,4,6,7,8-hexahydrocyclopenta[b]pyrazolo[4,3-e]pyridine-3,5-dione]	
> 10 µM	O=C1CCC2=C1C(c1ccc(F)c(Br)c1)c1c([nH]n(-c3ccccc3)c1=O)N2 (stereo not drawn) [Example 20, 4-(3-bromo-4-fluorophenyl)-2-phenyl-1,2,4,6,7,8-hexahydrocyclopenta[b]pyrazolo[4,3-e]pyridine-3,5-dione]	48%
> 10 µM	Cn1[nH]c(=O)c2c1NC1=C(C2c2ccc(F)c(Br)c2)S(=O)(=O)CC1 (stereo not drawn) [Example 21, 4-(3-bromo-4-fluorophenyl)-1-methyl-1,2,4,6,7,8-hexahydro-3H-pyrazolo[3,4-b]thieno[2,3-e]pyridin-3-one 5,5-dioxide]	
0.33 µM	Cn1[nH]c(=O)c2c1NC1=C(C(=O)C(C)(C)CC1)C2c1ccc(F)c(Br)c1 (stereo not drawn) [Example 22, 4-(3-bromo-4-fluorophenyl)-1,6,6-trimethyl-4,7,8,9-tetrahydro-1H-pyrazolo[3,4-b]quinoline-3,5(2H,6H)-dione]	105%
0.07 µM	Cn1[nH]c(=O)c2c1NC1=C(C(=O)C(C)(C)CC1)C2c1ccc(F)c(I)c1 (stereo not drawn) [Example 23, 4-(4-fluoro-3-iodophenyl)-1,6,6-trimethyl-4,7,8,9-tetrahydro-1H-pyrazolo[3,4-b]quinoline-3,5(2H,6H)-dione]	90%
0.18 µM	Cn1[nH]c(=O)c2c1NC1=C(C(=O)C(C)(C)CC1)C2c1ccc(Cl)c(Cl)c1 (stereo not drawn) [Example 24, 4-(3,4-dichlorophenyl)-1,6,6-trimethyl-4,7,8,9-tetrahydro-1H-pyrazolo[3,4-b]quinoline-3,5(2H,6H)-dione]	82%
3.2 µM	Cn1[nH]c(=O)c2c1NC1=C(C(=O)C(C)(C)CC1)C2c1ccc(F)c(-c2ccco2)c1 (stereo not drawn) [Example 25, 4-[4-fluoro-3-(2-furyl)phenyl]-1,6,6-trimethyl-4,7,8,9-tetrahydro-1H-pyrazolo[3,4-b]quinoline-3,5(2H,6H)-dione]	78%
